According to patent US9695155B2, “Herbicidal substituted pyrimidinyloxy benzene compounds” (E. I. DU PONT DE NEMOURS AND COMPANY, priority 2013, dated 2017):

Key:
velvetleaf = experiment: Test C preemergence; type: in vivo, Abutilon theophrasti
Summary of the method: (§1)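 Seeds were sown in loam–sand blend and sprayed preemergence, while plants at 1- to 4-leaf stage (2–18 cm) in peat-based medium received postemergence sprays; test chemicals were formulated in a non-phytotoxic solvent with surfactant. After 13–15 days in a greenhouse, injury was rated visually against controls, 0 (no effect) to 100 (complete control).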

yellow nutsedge = experiment: Test C postemergence; type: in vivo, Cyperus esculentus
Summary of the method: as §1

wheat, winter = experiment: Test C postemergence; type: in vivo, Triticum aestivum
Summary of the method: as §1

giant foxtail [1] = experiment: Test A preemergence; type: in vivo, Setaria faberii; settings: 0 to 100 scale where 0 is no effect and 100 is complete control
Summary of the method: (§2)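 Greenhouse pot test, loam/sand soil. Formulation: non-phytotoxic solvent mix plus surfactant. Pre: directed spray onto soil after sowing. Post: plants at 1–2 leaf, 2–10 cm. Rated visually vs untreated controls at ~10 d, 0 (no effect) to 100 (complete control).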

barnyardgrass = experiment: Test A postemergence; type: in vivo, Echinochloa crus-galli; settings: 0 to 100 scale where 0 is no effect and 100 is complete control
Summary of the method: as §2

ragweed = experiment: Test C postemergence; type: in vivo, Ambrosia elatior
Summary of the method: as §1

morningglory [2] = experiment: Test C postemergence; type: in vivo, Ipomoea coccinea
Summary of the method: as §1

morningglory [3] = experiment: Test C preemergence; type: in vivo, Ipomoea coccinea
Summary of the method: as §1

waterhemp = experiment: Test C preemergence; type: in vivo, Amaranthus rudis
Summary of the method: as §1

giant foxtail [4] = experiment: Test C postemergence; type: in vivo, Setaria faberii
Summary of the method: as §1

corn = experiment: Test C preemergence; type: in vivo, Zea mays
Summary of the method: as §1

galium = experiment: Test C postemergence; type: in vivo, Galium aparine
Summary of the method: as §1

wheat = experiment: Test A postemergence; type: in vivo, Triticum aestivum; settings: 0 to 100 scale where 0 is no effect and 100 is complete control
Summary of the method: as §2

sedge, umbrella = experiment: Test B flooded paddy test; type: in vivo, Cyperus difformis; settings: Flood, 250 g ai/ha, 0 to 100 scale where 0 is no effect and 100 is complete control
Summary of the method: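 Plants at 2-leaf stage; pots flooded to 3 cm above soil and compound applied directly into paddy water, depth held throughout. After 13 to 15 days in greenhouse, visual rating versus controls on 0 (no effect) to 100 (complete control) scale.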

[5] = 16 g ai/ha, preemergence, scale 0 to 100 (0 no effect, 100 complete control)
[6] = 62 g ai/ha, preemergence, scale 0 (no effect) to 100 (complete control)
[7] = 125 g ai/ha, preemergence, scale 0 (no effect) to 100 (complete control)
[8] = 16 g ai/ha, postemergence, 0 is no effect, 100 is complete control
[9] = 31 g ai/ha, postemergence, visual rating, scale 0 to 100 (0 no effect, 100 complete control), 13 to 15 days
[10] = 125 g ai/ha, postemergence, visual rating, scale 0 to 100 (0 no effect, 100 complete control)
[11] = Postemergence, 62 g ai/ha, scale 0 to 100 (0 no effect, 100 complete control)

FC(F)(F)Sc1cnn(-c2ccccc2Oc2ncc(Cl)cn2)c1 [Compound 132, 5-chloro-2-[2-[4-(trifluoromethylthio)-1H-pyrazol-1-yl]phenoxy]pyrimidine]
pest or weed control at 16 g/ha (velvetleaf; Abutilon theophrasti, pre-emergence, 16 g ai/ha, preemergence, scale 0 to 100 (0 no effect, 100 complete control), read-out: Velvetleaf plant response rating): 75% | pest or weed control at 62 g/ha (velvetleaf; Abutilon theophrasti, pre-emergence, 62 g ai/ha, preemergence, scale 0 (no effect) to 100 (complete control), read-out: Velvetleaf plant response rating): 100% | pest or weed control at 125 g/ha (velvetleaf; Abutilon theophrasti, pre-emergence, 125 g ai/ha, preemergence, scale 0 (no effect) to 100 (complete control), read-out: Velvetleaf plant response rating): 100% | pest or weed control at 31 g/ha (velvetleaf; Abutilon theophrasti, pre-emergence, Preemergence, 31 g ai/ha, scale 0 to 100, 0 no effect, 100 complete control, read-out: Plant response rating, Velvetleaf): 85% | pest or weed control at 16 g/ha (yellow nutsedge; Cyperus, post-emergence, 16 g ai/ha, postemergence, 0 is no effect, 100 is complete control, read-out: Plant response rating (0 to 100), Nutsedge, Yellow): 0% | pest or weed control at 125 g/ha (yellow nutsedge; Cyperus, post-emergence, 125 g ai/ha, postemergence, visual rating, scale 0 to 100 (0 no effect, 100 complete control), read-out: Plant response rating, Nutsedge, Yellow): 10% | pest or weed control at 62 g/ha (yellow nutsedge; Cyperus, post-emergence, Postemergence, 62 g ai/ha, scale 0 to 100 (0 no effect, 100 complete control), read-out: Plant response rating, Nutsedge, Yellow): 0% | plant injury at 16 g/ha (wheat, winter; Triticum aestivum, post-emergence, 16 g ai/ha, postemergence, 0 is no effect, 100 is complete control, read-out: Plant response rating (0 to 100), Wheat): 0% | plant injury at 125 g/ha (wheat, winter; Triticum aestivum, post-emergence, 125 g ai/ha, postemergence, visual rating, scale 0 to 100 (0 no effect, 100 complete control), read-out: Plant response rating, Wheat): 5% | plant injury at 62 g/ha (wheat, winter; Triticum aestivum, post-emergence, Postemergence, 62 g ai/ha, scale 0 to 100 (0 no effect, 100 complete control), read-out: Plant response rating, Wheat): 0% | pest or weed control at 125 g/ha (giant foxtail [1]; Setaria faberi, pre-emergence, 240 h, 125 g ai/ha, read-out: Plant response rating, Foxtail, Giant): 90% | pest or weed control at 500 g/ha (giant foxtail [1]; Setaria faberi, pre-emergence, 240 h, 500 g ai/ha, read-out: Foxtail, Giant plant response rating): 100% | pest or weed control at 125 g/ha (barnyardgrass; Echinochloa crus-galli, post-emergence, 240 h, 125 g ai/ha, read-out: Barnyardgrass plant response rating): 50% | pest or weed control at 500 g/ha (barnyardgrass; Echinochloa crus-galli, post-emergence, 240 h, 500 g ai/ha, read-out: Plant response rating, Barnyardgrass): 70% | pest or weed control at 16 g/ha (ragweed; Ambrosia artemisiifolia, post-emergence, 16 g ai/ha, postemergence, 0 is no effect, 100 is complete control, read-out: Plant response rating (0 to 100), Ragweed): 0% | pest or weed control at 125 g/ha (ragweed; Ambrosia artemisiifolia, post-emergence, 125 g ai/ha, postemergence, visual rating, scale 0 to 100 (0 no effect, 100 complete control), read-out: Plant response rating, Ragweed): 35% | pest or weed control at 62 g/ha (ragweed; Ambrosia artemisiifolia, post-emergence, Postemergence, 62 g ai/ha, scale 0 to 100 (0 no effect, 100 complete control), read-out: Plant response rating, Ragweed): 10% | pest or weed control at 16 g/ha (morningglory [2]; Ipomoea, post-emergence, 16 g ai/ha, postemergence, 0 is no effect, 100 is complete control, read-out: Plant response rating (0 to 100), Morningglory): 10% | pest or weed control at 125 g/ha (morningglory [2]; Ipomoea, post-emergence, 125 g ai/ha, postemergence, visual rating, scale 0 to 100 (0 no effect, 100 complete control), read-out: Plant response rating, Morningglory): 65% | pest or weed control at 62 g/ha (morningglory [2]; Ipomoea, post-emergence, Postemergence, 62 g ai/ha, scale 0 to 100 (0 no effect, 100 complete control), read-out: Plant response rating, Morningglory): 75% | pest or weed control at 16 g/ha (morningglory [3]; Ipomoea, pre-emergence, 16 g ai/ha, preemergence, scale 0 to 100 (0 no effect, 100 complete control), read-out: Morningglory plant response rating): 25% | pest or weed control at 62 g/ha (morningglory [3]; Ipomoea, pre-emergence, 62 g ai/ha, preemergence, scale 0 (no effect) to 100 (complete control), read-out: Morningglory plant response rating): 5% | pest or weed control at 125 g/ha (morningglory [3]; Ipomoea, pre-emergence, 125 g ai/ha, preemergence, scale 0 (no effect) to 100 (complete control), read-out: Morningglory plant response rating): 5% | pest or weed control at 31 g/ha (morningglory [3]; Ipomoea, pre-emergence, Preemergence, 31 g ai/ha, scale 0 to 100, 0 no effect, 100 complete control, read-out: Plant response rating, Morningglory): 0% | pest or weed control at 16 g/ha (waterhemp; Amaranthus tuberculatus, pre-emergence, 16 g ai/ha, preemergence, scale 0 to 100 (0 no effect, 100 complete control), read-out: Waterhemp plant response rating): 85% | pest or weed control at 62 g/ha (waterhemp; Amaranthus tuberculatus, pre-emergence, 62 g ai/ha, preemergence, scale 0 (no effect) to 100 (complete control), read-out: Waterhemp plant response rating): 100% | pest or weed control at 125 g/ha (waterhemp; Amaranthus tuberculatus, pre-emergence, 125 g ai/ha, preemergence, scale 0 (no effect) to 100 (complete control), read-out: Waterhemp plant response rating): 100% | pest or weed control at 31 g/ha (waterhemp; Amaranthus tuberculatus, pre-emergence, Preemergence, 31 g ai/ha, scale 0 to 100, 0 no effect, 100 complete control, read-out: Plant response rating, Waterhemp): 98% | pest or weed control at 16 g/ha (giant foxtail [4]; Setaria faberi, post-emergence, 16 g ai/ha, postemergence, 0 is no effect, 100 is complete control, read-out: Plant response rating (0 to 100), Foxtail, Giant): 0% | pest or weed control at 125 g/ha (giant foxtail [4]; Setaria faberi, post-emergence, 125 g ai/ha, postemergence, visual rating, scale 0 to 100 (0 no effect, 100 complete control), read-out: Plant response rating, Foxtail, Giant): 10% | pest or weed control at 62 g/ha (giant foxtail [4]; Setaria faberi, post-emergence, Postemergence, 62 g ai/ha, scale 0 to 100 (0 no effect, 100 complete control), read-out: Plant response rating, Foxtail, Giant): 5% | plant injury at 16 g/ha (corn; Zea mays, pre-emergence, 16 g ai/ha, preemergence, scale 0 to 100 (0 no effect, 100 complete control), read-out: Corn plant response rating): 0% | plant injury at 62 g/ha (corn; Zea mays, pre-emergence, 62 g ai/ha, preemergence, scale 0 (no effect) to 100 (complete control), read-out: Corn plant response rating): 20% | plant injury at 125 g/ha (corn; Zea mays, pre-emergence, 125 g ai/ha, preemergence, scale 0 (no effect) to 100 (complete control), read-out: Corn plant response rating): 35% | Corn plant response rating (crop injury, 0 = no effect, 100 = complete kill) at 31 g/ha (corn; Zea mays, pre-emergence, Preemergence, 31 g ai/ha, scale 0 to 100, 0 no effect, 100 complete control): 10% | pest or weed control at 16 g/ha (galium; Galium, post-emergence, 16 g ai/ha, postemergence, 0 is no effect, 100 is complete control, read-out: Plant response rating (0 to 100), Galium): 50% | pest or weed control at 125 g/ha (galium; Galium, post-emergence, 125 g ai/ha, postemergence, visual rating, scale 0 to 100 (0 no effect, 100 complete control), read-out: Plant response rating, Galium): 70% | pest or weed control at 62 g/ha (galium; Galium, post-emergence, Postemergence, 62 g ai/ha, scale 0 to 100 (0 no effect, 100 complete control), read-out: Plant response rating, Galium): 65% | plant injury at 125 g/ha (wheat; Triticum aestivum, post-emergence, 240 h, 125 g ai/ha, read-out: Wheat plant response rating): 0% | plant injury at 500 g/ha (wheat; Triticum aestivum, post-emergence, 240 h, 500 g ai/ha, read-out: Plant response rating, Wheat): 60% | pest or weed control at 250 g/ha (sedge, umbrella; Cyperus difformis, read-out: Plant response rating, Sedge, Umbrella): 0%

CCCOc1cnn(-c2c(C#N)cccc2Oc2ncc(Cl)cn2)c1 [Compound 150]
Velvetleaf plant response rating (velvetleaf; [5]): 5 | Velvetleaf plant response rating (velvetleaf; [6]): 60 | Velvetleaf plant response rating (velvetleaf; [7]): 70 | Plant response rating (0 to 100), Nutsedge, Yellow (yellow nutsedge; [8]): 0 | Nutsedge, Yellow plant response rating (yellow nutsedge; [9]): 0 | Plant response rating, Nutsedge, Yellow (yellow nutsedge; [10]): 5 | Plant response rating, Nutsedge, Yellow (yellow nutsedge; [11]): 15 | Plant response rating (0 to 100), Wheat (wheat, winter; [8]): 5 | Wheat plant response rating (wheat, winter; [9]): 5 | Plant response rating, Wheat (wheat, winter; [10]): 25 | Plant response rating, Wheat (wheat, winter; [11]): 5 | Plant response rating, Foxtail, Giant (giant foxtail [1]; 125 g ai/ha): 100 | Foxtail, Giant plant response rating (giant foxtail [1]; 500 g ai/ha): 100 | Barnyardgrass plant response rating (barnyardgrass; 125 g ai/ha): 100 | Plant response rating (0 to 100), Ragweed (ragweed; [8]): 30 | Ragweed plant response rating (ragweed; [9]): 30 | Plant response rating, Ragweed (ragweed; [10]): 65 | Plant response rating, Ragweed (ragweed; [11]): 35 | Plant response rating (0 to 100), Morningglory (morningglory [2]; [8]): 40 | Morningglory plant response rating (morningglory [2]; [9]): 60 | Plant response rating, Morningglory (morningglory [2]; [10]): 80 | Plant response rating, Morningglory (morningglory [2]; [11]): 65 | Morningglory plant response rating (morningglory [3]; [5]): 0 | Morningglory plant response rating (morningglory [3]; [6]): 45 | Morningglory plant response rating (morningglory [3]; [7]): 75 | Waterhemp plant response rating (waterhemp; [5]): 20 | Waterhemp plant response rating (waterhemp; [6]): 98 | Waterhemp plant response rating (waterhemp; [7]): 98 | Plant response rating (0 to 100), Foxtail, Giant (giant foxtail [4]; [8]): 5 | Foxtail, Giant plant response rating (giant foxtail [4]; [9]): 20 | Plant response rating, Foxtail, Giant (giant foxtail [4]; [10]): 25 | Plant response rating, Foxtail, Giant (giant foxtail [4]; [11]): 20 | Corn plant response rating (corn; [5]): 0 | Corn plant response rating (corn; [6]): 25 | Corn plant response rating (corn; [7]): 45 | Plant response rating, Corn (corn; Preemergence, 31 g ai/ha, scale 0 to 100, 0 no effect, 100 complete control): 0 | Plant response rating (0 to 100), Galium (galium; [8]): 60 | Galium plant response rating (galium; [9]): 65 | Plant response rating, Galium (galium; [10]): 80 | Plant response rating, Galium (galium; [11]): 75 | Wheat plant response rating (wheat; 125 g ai/ha): 30 | Plant response rating, Wheat (wheat; 500 g ai/ha): 90 | Plant response rating, Sedge, Umbrella (sedge, umbrella): 85
